Test results published in patent publication US20040171489A1, “Synergistic active compound combinations for controlling harmful plants” (priority 1998, published 2004).

How the values were obtained:
Echinochloa crus-galli = experiment: Example 19 field trial, 4 to 5-leaf stage: herbicidal effect; format: in vivo; details: 100 g of ai/ha; 31 days after application
Method: (§1) The herbicidal efficacy of the active compounds or active compound mixtures was scored visually using the treated plots in comparison to untreated control plots. The damage and development of all above-ground parts of the plants were recorded. Scoring was carried out using a percentage scale (100% effect=all plants killed; 50% effect=50% of the plants and the green parts of the plants killed; 0% effect=no noticeable effect=like control plot. The scores of in each case 4 plots were averaged.
(§2) If the observed activity values already exceed the formal sum of the values for the trials with the individual applications, they also exceed the expected value according to Colby which is calculated using the following formula and which is likewise considered to be an indication of synergism (cf. S. R. Colby; in Weeds 15 (1967) p. 20 to 22):
(§3) Crop plants were grown outdoors on plots under natural outdoor conditions, and seeds or rhizome pieces of typical harmful plants were laid out or the natural weed growth was utilized. […] After the application, for example 2, 4, 6 and 8 weeks after the application, the effect of the preparations was scored visually by comparison with untreated controls (cf. scoring in Section 1). […]

Setaria viridis = experiment: as above; format: in vivo; details: 100 g of ai/ha; 31 days after application
Method: as §1, §2, §3

Capsella bursa-pastoris [1] = experiment: Example 11 field trial, 2- to 4-leaf stage: herbicidal effect; format: in vivo; details: 28 days after application
Method: as §1, §2
(§4) Crop plants were grown outdoors on plots under natural outdoor conditions, and seeds or rhizome pieces of typical harmful plants were laid out or the natural weed growth was utilized. Treatment with the compositions according to the invention was carried out after the harmful plants had emerged and the crop plants were, generally, at the 2- to 4-leaf stage; in some cases (as stated), application of individual active compounds or active compound combinations was carried out pre-emergence (cf. Section 1) or post-emergence (cf. Section 2) or as a sequential treatment partly pre-emergence and/or post-emergence. After the application, for example 2, 4, 6 and 8 weeks after the application, the effect of the preparations was scored visually by comparison with untreated controls (cf. scoring in Section 1). In the field trial as well, the compositions according to the invention have synergistic herbicidal activity against a broad spectrum of economically important weed grasses and broad-leaved weeds. […] Moreover, the effects in essential phases of the scoring period were above the expected values according to Colby, also indicating synergism. In contrast, the crop plants were, as a consequence of the treatments with the herbicidal compositions, damaged only to a small degree, if at all.

winter wheat [2] = experiment: Example 11 field trial, 2- to 4-leaf stage: crop damage; format: in vivo, Triticum aestivum; details: 28 days after application
Method: as §1, §2, §4

Oryza sativa (rice) = experiment: Example 20 field trial, 3-leaf stage: crop damage; format: in vivo; details: 31 days after application
Method: as §1, §2, §4

[3] = system: corn which is glufosinate-ammonium-resistant; experiment: Example 18 field trial, 3-leaf stage: crop damage; format: in vivo, Corn (LL); details: 100 g of ai/ha; 31 days after application
Method: (§5) The damage and development of all above-ground parts of the plants were recorded.
(§6) Crop plants were grown outdoors on plots under natural outdoor conditions, and seeds or rhizome pieces of typical harmful plants were laid out or the natural weed growth was utilized.

Pharbitis purpurea = experiment: Example 21 field trial, 4-leaf stage: herbicidal effect; format: in vivo; details: 42 days after application
Method: as §1, §2
as §4, with “In contrast, the crop plants were, as a consequence of the treatments with the herbicidal compositions, damaged only to a small degree, if at all.” left out

Lamium ssp. = experiment: Example 16 field trial, post-emergence, 2- to 3-leaf stage: herbicidal effect; format: in vivo; details: 50 g of ai/ha; 69 days after application
Method: as §1, §2, §4

Matricaria chamomilla = experiment: as above; format: in vivo; details: 50 g of ai/ha; 69 days after application
Method: as §1, §2, §4

Viola arvensis = experiment: as above; format: in vivo; details: 50 g of ai/ha; 69 days after application
Method: as §1, §2, §4

Galium aparine [4] = experiment: as above; format: in vivo; details: 50 g of ai/ha; 69 days after application
Method: as §1, §2, §4

Anthemis arvensis = experiment: as above; format: in vivo; details: 50 g of ai/ha; 69 days after application
Method: as §1, §2, §4

Myosotis arvensis = experiment: as above; format: in vivo; details: 50 g of ai/ha; 69 days after application
Method: as §1, §2, §4

Papaver rhoeas = experiment: as above; format: in vivo; details: 50 g of ai/ha; 69 days after application
Method: as §1, §2, §4

summer wheat = experiment: Example 14 field trial, 2- to 4-leaf stage: crop damage; format: in vivo, Triticum aestivum; details: 28 days after application
Method: as §5, §6

winter wheat [5] = experiment: Example 10 pre-emergence application, fall: crop damage; format: in vivo, Triticum aestivum; details: 169 days after application
Source text: (§7) Seeds or rhizome pieces of monocotyledonous and dicotyledonous weed plants are placed in sandy loam soil in pots and covered with soil. The compositions, formulated in the form of concentrated aqueous solutions, wettable powders or emulsion concentrates, are then applied to the surface of the soil cover as aqueous solution, suspension or emulsion at an application rate of 600 to 800 l of water/ha (converted), in various dosages. After the treatment, the pots are placed in a greenhouse and kept under good growth conditions for the weeds. After the test plants have emerged, the damage to the plants or the negative effects on the emergence is scored visually after a test period of 3 to 4 weeks by comparison with untreated controls. As shown by the test results, the compositions according to the invention have good herbicidal pre-emergence activity against a broad spectrum of weed grasses and broad-leaved weeds.
as §1, §2, §4

Galium aparine [6] = experiment: Example 10 pre-emergence application, fall: herbicidal effect; format: in vivo; details: 169 days after application
Source text: as §7, §1, §2, §4

Alopecurus myosuroides = experiment: Example 9 field trials, application 1-3 leaf stage broad-leaved weeds: herbicidal effect; format: in vivo; details: 100 g of ai/ha; 120 to 160 days after application
Method: as §1, §2, §4

Capsella bursa-pastoris [7] = experiment: as above; format: in vivo; details: 100 g of ai/ha; 120 to 160 days after application
Method: as §1, §2, §4

Sorghum verticilliflorum = experiment: Example 13 field trial, 2- to 4-leaf stage: herbicidal effect; format: in vivo; details: 17 days after application
Method: as §1, §2, §4

winter barley = experiment: Example 9 field trials, application 1-3 leaf stage broad-leaved weeds: crop damage; format: in vivo, Hordeum vulgare; details: 100 g of ai/ha; 120 to 160 days after application
Method: as §1, §2
as §4, with “In contrast, the crop plants were, as a consequence of the treatments with the herbicidal compositions, damaged only to a small degree, if at all.” left out

Ipomoea hederacea = experiment: Example 17 field trial, pre-emergence: herbicidal effect; format: in vivo; details: 16 days after application
Source text: as §7, §1, §2, §4

Setaria faberi = experiment: as above; format: in vivo; details: 16 days after application
Source text: as §7, §1, §2, §4

Elusine indica = experiment: Example 18 field trial, 3-leaf stage: herbicidal effect; format: in vivo; details: 100 g of ai/ha; 31 days after application
Method: as §1, §2
as §4, with “In contrast, the crop plants were, as a consequence of the treatments with the herbicidal compositions, damaged only to a small degree, if at all.” left out

winter wheat [8] = experiment: Example 16 field trial, post-emergence, 2- to 3-leaf stage: crop damage; format: in vivo, Triticum aestivum; details: 50 g of ai/ha; 69 days after application
Method: as §1, §2, §3

Zea mays (corn) = experiment: Example 19 field trial, 4 to 5-leaf stage: crop damage; format: in vivo; details: 100 g of ai/ha; 31 days after application
Method: as §1, §2, §3

With `CC(C)(F)c1nc(N)nc(NC(CCc2ccccc2)C2CCC2)n1` (stereo not shown) [(A1), 4-amino-6-(1-fluoro-1-methylethyl)-2-(3-phenyl-1-cyclobutylpropylamino)-1,3,5-triazine] the “herbicidal effect, ECHCG” value (Echinochloa crus-galli) was 0%, the “herbicidal effect, SETVI” value (Setaria viridis) was 0% and the “herbicidal effect, CAPPBP” value (Capsella bursa-pastoris [1]; 25 g of ai/ha) was 40%. The “herbicidal effect, CAPPBP” value (Capsella bursa-pastoris [1]; 50 g of ai/ha) was 68%, the “herbicidal effect, CAPPBP” value (Capsella bursa-pastoris [1]; 75 g of ai/ha) was 73% and the “herbicidal effect, CAPPBP” value (Capsella bursa-pastoris [1]; 100 g of ai/ha) was 79%. The “damage, TRZAW” value (winter wheat [2]; 25 g of ai/ha) was 0%, the “damage, TRZAW” value (winter wheat [2]; 50 g of ai/ha) was 1% and the “damage, TRZAW” value (winter wheat [2]; 75 g of ai/ha) was 1%. For the same compound, the “damage, TRZAW” value (winter wheat [2]; 100 g of ai/ha) was 2%, the “damage, ORYSA” value (Oryza sativa (rice); 25 g of ai/ha) was 0% and the “damage, ORYSA” value (Oryza sativa (rice); 50 g of ai/ha) was 0%. The “damage, ORYSA” value (Oryza sativa (rice); 100 g of ai/ha) was 0%, the “damage, Corn (LL)” value [3] was 0% and the “herbicidal effect, PHBPU” value (Pharbitis purpurea; 25 g of ai/ha) was 90%. For the same compound, the “herbicidal effect, PHBPU” value (Pharbitis purpurea; 50 g of ai/ha) was 95%, the “herbicidal effect, PHBPU” value (Pharbitis purpurea; 100 g of ai/ha) was 97% and the “herbicidal effect (%), LAMSS” value (Lamium ssp.) was 53%. The “herbicidal effect (%), MATCH” value (Matricaria chamomilla) was 19%, the “herbicidal effect (%), VIOAR” value (Viola arvensis) was 90% and the “herbicidal effect (%), GALAP” value (Galium aparine [4]) was 66%. For the same compound, the “herbicidal effect (%), ANTAR” value (Anthemis arvensis) was 0%, the “herbicidal effect (%), MYOAR” value (Myosotis arvensis) was 81% and the “herbicidal effect (%), PAPRH” value (Papaver rhoeas) was 96%. For the same compound, the “damage, TRZAS” value (summer wheat; 25 g of ai/ha) was 2%, the “damage, TRZAS” value (summer wheat; 50 g of ai/ha) was 2% and the “damage, TRZAS” value (summer wheat; 100 g of ai/ha) was 5%. The “damage, TRZAW” value (winter wheat [5]; 50 g of ai/ha) was 1%, the “damage, TRZAW” value (winter wheat [5]; 100 g of ai/ha) was 2% and the “herbicidal effect, GALAP” value (Galium aparine [6]; 50 g of ai/ha) was 45%. The “herbicidal effect, GALAP” value (Galium aparine [6]; 100 g of ai/ha) was 45%, the “herbicidal effect, ALOMY” value (Alopecurus myosuroides) was 0% and the “herbicidal effect, CAPBP” value (Capsella bursa-pastoris [7]) was 88%. The “herbicidal effect, SORVE” value (Sorghum verticilliflorum; 62.5 g of ai/ha) was 35%, the “herbicidal effect, SORVE” value (Sorghum verticilliflorum; 125 g of ai/ha) was 50% and the “damage, HORVW” value (winter barley) was 0%. For the same compound, the “herbicidal effect, IPOHE” value (Ipomoea hederacea; 50 g of ai/ha) was 85%, the “herbicidal effect, IPOHE” value (Ipomoea hederacea; 100 g of ai/ha) was 93% and the “herbicidal effect, SETFA” value (Setaria faberi; 50 g of ai/ha) was 85%. The “herbicidal effect, SETFA” value (Setaria faberi; 100 g of ai/ha) was 94%, the “herbicidal effect, ELEIN” value (Elusine indica) was 0% and the “herbicidal effect (%), TRZAW (crop)” value (winter wheat [8]) was 0%. For the same compound, the “damage, ZEAMA” value (Zea mays (corn)) was 0%.
